Experimental data: US8344135B2, “Heterocyclic compound and use thereof” (Takeda Pharmaceutical Company Limited, priority 2007, dated 2013)

target: T1, BRAF (V600E) (Homo sapiens, UniProt P15056, V600E); experiment: Determination of BRAF (V600E) kinase inhibitory activity; type: biochemical; details: test compound 1.0 μM; substrate GST-MEK1 (K96R); [γ-32P]ATP; read-out: Inhibitory rate (%) at 1.0 μM
T1 construct: area encoding the BRAF kinase domain region, so that the protein contains an N-terminal Flag; made in house; host or cells: SF-21 insect cells infected with recombinant baculovirus BAC-V600E
T1 sequence (P15056 457-717 V600E limits assumed): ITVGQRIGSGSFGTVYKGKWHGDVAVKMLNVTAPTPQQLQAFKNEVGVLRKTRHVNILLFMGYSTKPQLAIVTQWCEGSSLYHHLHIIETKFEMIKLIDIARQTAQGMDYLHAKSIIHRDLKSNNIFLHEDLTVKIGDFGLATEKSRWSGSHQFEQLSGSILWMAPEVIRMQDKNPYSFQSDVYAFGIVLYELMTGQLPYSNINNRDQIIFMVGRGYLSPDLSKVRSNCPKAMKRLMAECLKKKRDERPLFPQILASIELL
Protocol: Determination of BRAF (V600E) Kinase Inhibitory Activity
A test compound (2.5 μL) dissolved in dimethyl sulfoxide (DMSO) was added to 37.5 μL of a reaction solution (25 mM HEPES (pH 7.5), 10 mM magnesium acetate, 1 mM dithiothreitol) containing BRAF (V600E) enzyme (30 ng) and recombinant type protein GST-MEK1 (K96R) 250 ng, and the mixture was incubated at room temperature for 10 min. ATP solution (10 μL, 2.5 μM ATP, 0.1 μCi [γ-^32P]ATP) was added to the obtained mixture, and the mixture was reacted at room temperature for 20 min. The reaction was quenched by adding 50 μL of ice-cooled 20% trichloroacetic acid (Wako Pure Chemical Industries, Ltd.). The reaction solution was allowed to stand at 4° C. for 30 min, and the acid-precipitable fraction was transferred to GF/C filter plate (Millipore Corporation) using cell harvester (PerkinElmer). The plate was dried at 45° C. for 60 min, and 40 μL of MicroScinti 0 (PerkinElmer) was added thereto. The radioactivity was measured using TopCount (PerkinElmer). The kinase inhibitory rate (%) of the test compound was calculated by the following formula: Inhibitory rate (%)=(1−(count of test compound−blank)÷(control−blank))×100
The count of the solution reacted without addition of the compound was used as a “control”, and the count of the solution without the compound and enzyme was used as a “blank”.

inhibition at 1 µM	Compound
100%	COc1ccc(NC(=O)c2cccc(C3(C#N)CC3)c2)cc1Oc1ccc2nc(NC(=O)C3CC3)sc2n1 [Example C1, 3-(1-cyanocyclopropyl)-N-[3-({2-[(cyclopropylcarbonyl)amino][1,3]thiazolo[5,4-b]pyridin-5-yl}oxy)-4-methoxyphenyl]benzamide]
99%	Cc1ccc(NC(=O)c2cccc(C(F)(F)F)c2)cc1Oc1ccc2nc(NC(=O)C3CC3)sc2n1 [Example C8, N-[3-({2-[(cyclopropylcarbonyl)amino][1,3]thiazolo[5,4-b]pyridin-5-yl}oxy)-4-methylphenyl]-3-(trifluoromethyl)benzamide]
99%	Cc1ccc(NC(=O)c2cccc(C3(C#N)CC3)c2)cc1Oc1ccc2nc(NC(=O)CO)sc2n1 [Example C17, 3-(1-cyanocyclopropyl)-N-(3-{[2-(glycoloylamino)[1,3]thiazolo[5,4-b]pyridin-5-yl]oxy}-4-methylphenyl)benzamide]
100%	O=C(Nc1cccc(Oc2ccc3nc(NC(=O)C4CC4)sc3n2)c1)c1cccc(C(F)(F)F)c1 [Example C20, N-[3-({2-[(cyclopropylcarbonyl)amino][1,3]thiazolo[5,4-b]pyridin-5-yl}oxy)phenyl]-3-(trifluoromethyl)benzamide]
100%	CN1CCN(CC(=O)Nc2nc3ccc(Oc4cccc(NC(=O)c5cccc(C(F)(F)F)c5)c4)nc3s2)CC1 [Example C22, N-{3-[(2-{[(4-methylpiperazin-1-yl)acetyl]amino}[1,3]thiazolo[5,4-b]pyridin-5-yl)oxy]phenyl}-3-(trifluoromethyl)benzamide]
100%	CN1CCN(CC(=O)Nc2nc3ccc(Oc4cccc(NC(=O)c5cccc(C(C)(C)C#N)c5)c4)nc3s2)CC1 [Example C25, 3-(1-cyano-1-methylethyl)-N-{3-[(2-{[(4-methylpiperazin-1-yl)acetyl]amino}[1,3]thiazolo[5,4-b]pyridin-5-yl)oxy]phenyl}benzamide]
100%	Cc1ccc(Oc2ccc3nc(NC(=O)c4cocn4)sc3n2)cc1NC(=O)c1cccc(C2(C#N)CC2)c1 [Example C30, N-[5-(3-{[3-(1-cyanocyclopropyl)benzoyl]amino}-4-methylphenoxy)[1,3]thiazolo[5,4-b]pyridin-2-yl]-1,3-oxazole-4-carboxamide]
100%	Cc1ccc(Oc2ccc3nc(NC(=O)CO)sc3n2)cc1NC(=O)c1cccc(C(C)(C)C#N)c1 [Example C36, 3-(1-cyano-1-methylethyl)-N-(5-{[2-(glycoloylamino)[1,3]thiazolo[5,4-b]pyridin-5-yl]oxy}-2-methylphenyl)benzamide]
100%	O=C(Nc1cccc(Nc2ccc3nc(NC(=O)C4CC4)sc3n2)c1)c1cccc(C(F)(F)F)c1 [Example C41, N-[3-({2-[(cyclopropylcarbonyl)amino][1,3]thiazolo[5,4-b]pyridin-5-yl}amino)phenyl]-3-(trifluoromethyl)benzamide]

test system: human colon cancer cell HT-29; experiment: Colon cancer cell HT-29 growth suppressive action in vitro; type: cell-based; details: 72 h, HT-29 cells, 3 days culture, SRB staining, read-out: IC50 (nM), cell growth suppression
Protocol: Colon Cancer Cell HT-29 Growth Suppressive Action in vitro
A cell suspension (100 μL, 3,000 cells/well) of human colon cancer cell HT-29 (purchased from ATCC) was plated in a 96-well plate, and the cells were cultured at 37° C. in a 5% carbon dioxide gas incubator. The next day, 2-fold serial dilution of each test compound solution (diluted from maximum concentration 20 μM) (100 μL) was added, and the cells were cultured for 3 days. The culture medium containing the test compound was removed, and the cells were washed with phosphate buffer (PBS). A 50% trichloroacetic acid solution was added to the final concentration of 10% (v/v), and the mixture was stood overnight at 4° C., whereby the cells were fixed to the plate. Then, a dye SRB 0.4% (w/v) solution (dissolved in 1% acetic acid) was added at 50 μl/well, whereby the cell protein was fixed and stained (Skehan et al., Journal Of National Cancer Institute, vol. 82, pp. 1107-1112, 1990). The cells were washed 3 times with 1% acetic acid solution (200 μL/well), and 100 μL of an extract (10 mM Tris buffer) was added to extract the dye. The absorbance at an absorption wavelength […] was measured, and cell amount was measured as a protein amount.

IC50	Compound
< 500 nM	COc1ccc(NC(=O)c2cccc(C(C)(C)C#N)c2)cc1Oc1ccc2nc(NC(=O)C3CC3)sc2n1 [Example C6, 3-(1-cyano-1-methylethyl)-N-[3-({2-[(cyclopropylcarbonyl)amino][1,3]thiazolo[5,4-b]pyridin-5-yl}oxy)-4-methoxyphenyl]benzamide]
< 500 nM	Cc1ccc(NC(=O)c2cccc(C(C)(C)C#N)c2)cc1Oc1ccc2nc(NC(=O)C3CC3)sc2n1 [Example C12, 3-(1-cyano-1-methylethyl)-N-[3-({2-[(cyclopropylcarbonyl)amino][1,3]thiazolo[5,4-b]pyridin-5-yl}oxy)-4-methylphenyl]benzamide]
< 500 nM	Cc1ccc(NC(=O)c2cccc(C(C)(C)C#N)c2)cc1Oc1ccc2nc(NC(=O)CN3CCN(C)CC3)sc2n1 [Example C15, 3-(1-cyano-1-methylethyl)-N-{4-methyl-3-[(2-{[(4-methylpiperazin-1-yl)acetyl]amino}[1,3]thiazolo[5,4-b]pyridin-5-yl)oxy]phenyl}benzamide]
< 500 nM	Cc1ccc(NC(=O)c2cccc(C3(C#N)CC3)c2)cc1Oc1ccc2nc(NC(=O)CN3CCN(C)CC3)sc2n1 [Example C19, 3-(1-cyanocyclopropyl)-N-{4-methyl-3-[(2-{[(4-methylpiperazin-1-yl)acetyl]amino}[1,3]thiazolo[5,4-b]pyridin-5-yl)oxy]phenyl}benzamide]
< 500 nM	CC(C)(C#N)c1cccc(C(=O)Nc2cccc(Oc3ccc4nc(NC(=O)C5CC5)sc4n3)c2)c1 [Example C23, 3-(1-cyano-1-methylethyl)-N-[3-({2-[(cyclopropylcarbonyl)amino][1,3]thiazolo[5,4-b]pyridin-5-yl}oxy)phenyl]benzamide]
< 500 nM	CC(C)(C#N)c1cccc(C(=O)Nc2cccc(Oc3ccc4nc(NC(=O)CO)sc4n3)c2)c1 [Example C24, 3-(1-cyano-1-methylethyl)-N-(3-{[2-(glycoloylamino)[1,3]thiazolo[5,4-b]pyridin-5-yl]oxy}phenyl)benzamide]
< 500 nM	CN1CCN(CC(=O)Nc2nc3ccc(Oc4cccc(NC(=O)c5cccc(C6(C#N)CC6)c5)c4)nc3s2)CC1 [Example C28, 3-(1-cyanocyclopropyl)-N-{3-[(2-{[(4-methylpiperazin-1-yl)acetyl]amino}[1,3]thiazolo[5,4-b]pyridin-5-yl)oxy]phenyl}benzamide]
< 500 nM	N#CC1(c2cccc(C(=O)Nc3cc(Oc4ccc5nc(NC(=O)C6CC6)sc5n4)ccc3F)c2Cl)CC1 [Example C66, 2-chloro-3-(1-cyanocyclopropyl)-N-[5-({2-[(cyclopropylcarbonyl)amino][1,3]thiazolo[5,4-b]pyridin-5-yl}oxy)-2-fluorophenyl]benzamide]
< 500 nM	CCN1CCN(CC(=O)Nc2nc3ccc(Oc4cc(NC(=O)c5cccc(C(C)(C)C#N)c5)ccc4C)nc3s2)CC1 [Example C88, 3-(1-cyano-1-methylethyl)-N-{3-[(2-{[(4-ethylpiperazin-1-yl)acetyl]amino}[1,3]thiazolo[5,4-b]pyridin-5-yl)oxy]-4-methylphenyl}benzamide]
< 500 nM	CN(c1ccc(F)c(NC(=O)c2cccc(OC(C)(C)C#N)c2Cl)c1)c1ccc2nc(NC(=O)C3CC3)sc2n1 [Example C122, 2-chloro-3-(1-cyano-1-methylethoxy)-N-{5-[{2-[(cyclopropylcarbonyl)amino][1,3]thiazolo[5,4-b]pyridin-5-yl}(methyl)amino]-2-fluorophenyl}benzamide]
< 500 nM	CC(C)(C#N)Oc1cccc(C(=O)Nc2cc(Nc3ccc4nc(NC(=O)C5CC5)sc4n3)ccc2F)c1Cl [Example C126, 2-chloro-3-(1-cyano-1-methylethoxy)-N-[5-({2-[(cyclopropylcarbonyl)amino][1,3]thiazolo[5,4-b]pyridin-5-yl}amino)-2-fluorophenyl]benzamide]
< 500 nM	CN1CCN(CC(=O)Nc2nc3cnc(N(C)c4cccc(NC(=O)c5cccc(C(C)(C)C#N)c5)c4)nc3s2)CC1 [Example D11, 3-(1-cyano-1-methylethyl)-N-{3-[methyl(2-{[(4-methylpiperazin-1-yl)acetyl]amino}[1,3]thiazolo[5,4-d]pyrimidin-5-yl)amino]phenyl}benzamide]
< 500 nM	Cc1ccc(NC(=O)c2cccc(C(C)(C)C#N)c2)cc1Nc1ncc2nc(NC(=O)C3CC3)sc2n1 [Example D25, 3-(1-cyano-1-methylethyl)-N-[3-({2-[(cyclopropylcarbonyl)amino][1,3]thiazolo[5,4-d]pyrimidin-5-yl}amino)-4-methylphenyl]benzamide]
< 500 nM	Cc1ccc(NC(=O)c2cccc(C(C)(C)C#N)c2)cc1Nc1ncc2nc(NC(=O)CN3CCN(C)CC3)sc2n1 [Example D33, 3-(1-cyano-1-methylethyl)-N-{4-methyl-3-[(2-{[(4-methylpiperazin-1-yl)acetyl]amino}[1,3]thiazolo[5,4-d]pyrimidin-5-yl)amino]phenyl}benzamide]
< 500 nM	CC(=O)Nc1nc2cnc(Nc3cc(NC(=O)c4cccc(C(C)(C)C#N)c4Cl)ccc3C)nc2s1 [Example D35, N-(3-{[2-(acetylamino)[1,3]thiazolo[5,4-d]pyrimidin-5-yl]amino}-4-methylphenyl)-2-chloro-3-(1-cyano-1-methylethyl)benzamide]
